Reference: patent US7205295B2, “Benzoxazin-3-ones and derivatives thereof as therapeutic agents” (Warner-Lambert Company LLC, priority 2002, dated 2007)

Molecular target: T1, PI3Kγ (p101/p110γ protein) (Homo sapiens, UniProt P48736)
T1 construct: HA; made in house; host or cells: Spodoptera frugiperda (Sf9) cells, baculovirus co-infection
Test: PI3Kγ In Vitro Kinase Assay
Type: biochemical
Conditions: purified recombinant p101/p110γ with G protein β1/γ2 subunits; 20 μM ATP, 25 μM PIP2; 20 minutes at room temperature
Summary of the method: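 Sf9-expressed, purified human p101/p110γ (2.7 nM) was activated by Gβ1/γ2 (57.7 nM) and reacted with 20 μM ATP plus [γ-32P]ATP on PIP2 (25 μM)/PE (300 μM) micelles with 10 mM MgCl2 in HEPES buffer. Reactions ran 20 min at room temperature. Filter-captured radiolabeled PIP3 was counted by scintillation.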

T1 sequence (P48736 whole entry, species assumed): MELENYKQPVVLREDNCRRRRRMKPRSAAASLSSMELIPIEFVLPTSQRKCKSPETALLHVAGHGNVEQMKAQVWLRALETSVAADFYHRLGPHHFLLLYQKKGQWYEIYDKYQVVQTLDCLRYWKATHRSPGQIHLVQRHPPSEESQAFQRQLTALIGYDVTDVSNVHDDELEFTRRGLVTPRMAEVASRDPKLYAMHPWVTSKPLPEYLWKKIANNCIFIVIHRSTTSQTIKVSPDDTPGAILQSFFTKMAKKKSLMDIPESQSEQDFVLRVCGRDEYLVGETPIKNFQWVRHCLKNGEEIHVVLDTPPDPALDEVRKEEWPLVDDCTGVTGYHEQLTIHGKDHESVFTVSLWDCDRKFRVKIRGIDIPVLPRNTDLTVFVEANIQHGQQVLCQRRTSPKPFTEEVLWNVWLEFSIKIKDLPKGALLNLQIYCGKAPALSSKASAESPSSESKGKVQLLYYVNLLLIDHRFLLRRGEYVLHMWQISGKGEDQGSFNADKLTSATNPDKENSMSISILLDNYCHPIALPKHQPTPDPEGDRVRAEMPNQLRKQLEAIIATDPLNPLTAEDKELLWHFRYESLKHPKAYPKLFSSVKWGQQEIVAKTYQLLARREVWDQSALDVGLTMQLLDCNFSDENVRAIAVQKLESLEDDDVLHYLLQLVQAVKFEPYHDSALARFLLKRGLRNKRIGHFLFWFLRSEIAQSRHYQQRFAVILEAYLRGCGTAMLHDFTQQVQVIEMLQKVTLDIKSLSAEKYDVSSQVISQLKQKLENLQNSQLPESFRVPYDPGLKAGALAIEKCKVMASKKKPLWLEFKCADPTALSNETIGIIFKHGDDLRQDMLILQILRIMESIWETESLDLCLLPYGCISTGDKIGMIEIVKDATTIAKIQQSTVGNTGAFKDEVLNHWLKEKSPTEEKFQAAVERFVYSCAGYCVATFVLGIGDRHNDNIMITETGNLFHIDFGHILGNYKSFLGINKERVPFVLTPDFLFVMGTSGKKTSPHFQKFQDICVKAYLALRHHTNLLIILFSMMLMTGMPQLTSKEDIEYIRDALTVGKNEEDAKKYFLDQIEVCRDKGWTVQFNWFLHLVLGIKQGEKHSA
T1 sequence (Q8WYR1 whole entry partner, species assumed): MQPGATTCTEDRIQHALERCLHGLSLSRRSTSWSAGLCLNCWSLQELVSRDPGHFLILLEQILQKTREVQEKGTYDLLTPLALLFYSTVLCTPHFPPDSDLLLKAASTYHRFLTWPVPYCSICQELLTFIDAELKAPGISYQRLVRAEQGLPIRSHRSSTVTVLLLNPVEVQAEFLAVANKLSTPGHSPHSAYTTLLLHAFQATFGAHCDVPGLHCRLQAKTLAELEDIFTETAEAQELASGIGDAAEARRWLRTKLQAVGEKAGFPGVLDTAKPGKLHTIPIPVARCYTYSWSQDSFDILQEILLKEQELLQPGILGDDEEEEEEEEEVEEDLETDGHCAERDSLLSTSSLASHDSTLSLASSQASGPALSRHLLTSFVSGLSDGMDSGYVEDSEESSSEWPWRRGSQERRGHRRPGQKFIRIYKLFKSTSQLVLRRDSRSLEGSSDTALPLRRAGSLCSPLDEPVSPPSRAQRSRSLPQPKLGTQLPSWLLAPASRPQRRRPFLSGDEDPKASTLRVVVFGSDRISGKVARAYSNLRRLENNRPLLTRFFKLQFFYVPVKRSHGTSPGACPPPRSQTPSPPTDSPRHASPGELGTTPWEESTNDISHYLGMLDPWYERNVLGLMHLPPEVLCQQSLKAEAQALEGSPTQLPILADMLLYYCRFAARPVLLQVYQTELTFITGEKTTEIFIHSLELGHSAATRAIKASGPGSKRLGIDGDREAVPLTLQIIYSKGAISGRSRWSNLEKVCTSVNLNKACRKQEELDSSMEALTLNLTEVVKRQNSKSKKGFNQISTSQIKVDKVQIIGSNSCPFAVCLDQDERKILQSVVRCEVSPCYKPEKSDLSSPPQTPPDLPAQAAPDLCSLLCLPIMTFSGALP

| IC50 [nM] | SMILES |
| --- | --- |
| 20 | O=C1NC(=S)SC1=Cc1cc(Cl)c2c(c1)N(Cc1ccc(CN3CCCCC3)cc1)C(=O)CO2 [Example 79, 8-Chloro-6-(4-oxo-2-thioxo-thiazolidin-5-ylidenemethyl)-4-(4-piperidin-1-ylmethyl-benzyl)-4H-1,4-benzoxazin-3-one; compound with Toluene-4-sulfonic acid] |
| 17 | O=C1NC(=S)SC1=Cc1cc(Cl)c2c(c1)N(Cc1ccc(CN3CCOCC3)cc1)C(=O)CO2 [Example 80, 8-Chloro-4-(4-morpholin-4-ylmethyl-benzyl)-6-(4-oxo-2-thioxo-thiazolidin-5-ylidenemethyl)-4H-1,4-benzoxazin-3-one] |
| 29 | O=C1NC(=S)SC1=Cc1ccc2c(c1)N(Cc1ccccc1)C(=O)CS2 [Example 81, 4-Benzyl-6-(4-oxo-2-thioxo-thiazolidin-5-ylidenemethyl)-4H-1,4-benzothiazin-3-one] |
| 3740 | CC(C)(C)c1cc(CN2C(=O)CSc3ccc(C=C4SC(=S)NC4=O)cc32)cc(C(C)(C)C)c1 [Example 82, 4-(3,5-Di-tert-butyl-benzyl)-6-(4-oxo-2-thioxo-thiazolidin-5-ylidenemethyl)-4H-1,4-benzothiazin-3-one] |
| 260 | O=C1CSc2ccc(C=C3SC(=S)NC3=O)cc2N1 [Example 83, 6-(4-Oxo-2-thioxo-thiazolidin-5-ylidenemethyl)-4H-1,4-benzothiazin-3-one] |
| 60 | O=C1COc2ccc(C=C3OC(=S)NC3=O)cc2N1 [Example 84, 6-(4-Oxo-2-thioxo-oxazolidin-5-ylidenemethyl)-4H-benzo[1,4]oxazin-3-one] |
| 21 | CC(C)(C)c1cc(CN2C(=O)COc3ccc(C=C4SC(=O)NC4=O)cc32)cc(C(C)(C)C)c1 [Example 85, 5-[4-(3,5-Di-tert-butyl-benzyl)-3-oxo-3,4-dihydro-2H-1,4-benzoxazin-6-ylmethylene]-thiazolidine-2,4-dione] |
| 12300 | O=C1CC(=Cc2ccc3c(c2)NC(=O)CO3)C(=O)N1 [Example 86, 3-(3-Oxo-3,4-dihydro-2H-benzo[1,4]oxazin-6-ylmethylene)-pyrrolidine-2,5-dione] |
| 16100 | O=C1COc2ccc(C=C3NC(=O)NC3=O)cc2N1 [Example 87, 5-(3-Oxo-3,4-dihydro-2H-benzo[1,4]oxazin-6-ylmethylene)-imidazolidine-2,4-dione] |
| 5 | Cc1ccc(CN2C(=O)COc3ccc(C=C4SC(=S)NC4=O)cc32)c(C)c1 [Example 100, 4-(2,4-Dimethyl-benzyl)-6-(4-oxo-2-thioxo-thiazolidin-5-ylidenemethyl)-4H-1,4-benzoxazin-3-one] |
| 5 | Cc1cccc(CCN2C(=O)COc3ccc(C=C4SC(=S)NC4=O)cc32)c1 [Example 101, 6-(4-Oxo-2-thioxo-thiazolidin-5-ylidenmethyl)-4-[2-m-tolyl-ethyl]-4H-benzo[1,4]oxazin-3-one] |
| 330 | C[C@@H]1Oc2ccc(C=C3SC(=S)NC3=O)cc2N(CCc2ccc(Cl)c(Cl)c2)C1=O [Example 109, (S)-4-[2-(3,4-Dichloro-phenyl)-ethyl]-2-methyl-6-(4-oxo-2-thioxo-thiazolidin-5-ylidenmethyl)-4H-benzo[1,4]oxazin-3-one] |
| 55 | O=C1NC(=S)SC1=Cc1cc(Cl)c2c(c1)N(CCc1ccc(Cl)c(Cl)c1)C(=O)CO2 [Example 110, 8-Chloro-4-[2-(3,4-dichloro-phenyl)-ethyl]-6-(4-oxo-2-thioxo-thiazolidin-5-ylidenmethyl)-4H-benzo[1,4]oxazin-3-one] |
| 14 | O=C1NC(=S)SC1=Cc1cc(F)c2c(c1)N(CCc1ccc(Cl)c(Cl)c1)C(=O)CO2 [Example 111, 4-[2-(3,4-dichloro-phenyl)-ethyl]-8-fluoro-6-(4-oxo-2-thioxo-thiazolidin-5-ylidenmethyl)-4H-benzo[1,4]oxazin-3-one] |
| 22 | Cc1cc(C=C2SC(=S)NC2=O)cc2c1OCC(=O)N2CCc1ccc(Cl)c(Cl)c1 [Example 112, 4-[2-(3,4-dichloro-phenyl)-ethyl]-8-methyl-6-(4-oxo-2-thioxo-thiazolidin-5-ylidenmethyl)-4H-benzo[1,4]oxazin-3-one] |
